Source: patent publication US20240277890A1, “ANTIMICROBIAL ARTICLES COMPRISING POLYURETHANE” (Amicoat AS, priority 2021, published 2024)
≈ marks a conversion by molar mass, not a printed value.

Experiments:
[1] = system: Methicillin resistant Staphylococcus aureus (MRSA) strain ATCC 33591; details: ATCC 33591
[2] = system: Staphylococcus aureus ATCC 43300 - methicillin-resistant control strain
[3] = system: Staphylococcus aureus FDA486; test: Murine skin infection model, one day topical treatment; type: in vivo, mice; details: cream or gel containing 2% (w/w) of compound; three topical treatments at three hourly intervals; compared to placebo
Experimental: (§1) The skin of mice was infected with Staphylococcus aureus or Streptococcus pyogenes and subsequently given a total of three treatments at three hourly intervals. Three hours after the last treatment, skin biopsies were collected and the number of colony forming units (CFUs) present in the skin sample was determined. Results are shown in FIGS. 3, 4 and 5 expressed as the number of colony forming units per mouse.

[4] = system: Streptococcus pyogenes CS301; test: as above; type: in vivo, mice
Experimental: as §1

[5] = system: Corynebacterium jeikeium - antibiotic-susceptible clinical isolate
[6] = system: Staphylococcus epidermidis methicillin-resistant clinical isolate
[7] = system: Enterococcus gallinarum vancomycin-resistant (VanC) clinical isolate
[8] = system: Staphylococcus aureus ATCC 29213 - antibiotic-susceptible control strain; details: ATCC 29213
[9] = system: Staphylococcus haemolyticus - antibiotic susceptible clinical isolate
[10] = system: Candida tropicalis ATCC750 - reference strain
[11] = system: Methicillin resistant Staphylococcus epidermidis (MRSE) strain ATCC 27626; details: ATCC 27626
[12] = system: Streptococcus bovis - macrolide-resistant clinical isolate
[13] = system: Staphylococcus saprophyticus - antibiotic susceptible clinical isolate
[14] = system: Staphylococcus epidermidis antibiotic susceptible clinical isolate
[15] = system: HT2001254 Staphylococcus aureus (MRSA) - PVL positive; details: HT2001254 S. aureus (MRSA) PVL positive
[16] = system: Staphylococcus aureus, strain ATCC 25923; details: ATCC 25923
[17] = system: Streptococcus agalactiae - antibiotic-susceptible clinical isolate
[18] = system: Moraxella catarrhalis - reduced fluoroquinolone susceptibility clinical isolate
[19] = system: EMRSA15 Staphylococcus aureus (MRSA) - SSCmec type 4; details: EMRSA15 - SSCmec type 4
[20] = system: Corynebacterium jeikeium - multi-drug resistant clinical isolate
[21] = system: Trichophyton mentagrophytes - G.R. Micro collection
[22] = system: Candida (Issatchenkia) krusei ATCC6258 - reference strain
[23] = system: Staphylococcus aureus - methicillin-resistant clinical isolate
[24] = system: Cryptococcus neoformans - G.R. Micro collection
[25] = system: Pseudomonas aeruginosa - multi-drug resistant clinical isolate
[26] = system: Moraxella catarrhalis - β-lactamase positive clinical isolate
[27] = system: Staphylococcus aureus ATCC 25923 - antibiotic-susceptible control strain
[28] = system: EMRSA3 Staphylococcus aureus (MRSA) - SSCmec type 1; details: EMRSA3 - SSCmec type 1

SMILES: CC(C)NC(=O)[C@H](CCCNC(=N)N)NC(=O)[C@H](Cc1c(C(C)(C)C)[nH]c2c(C(C)(C)C)cc(C(C)(C)C)cc12)NC(=O)[C@@H](N)CCCNC(=N)N [Compound 7]
- MRSA (MIC) [1]: <2 µg/mL
- MIC [2]: 8 µg/mL (≈ 11 µM)
- number of CFUs in skin biopsy [3]: the number of CFUs was reduced
- number of CFUs in skin biopsy ([4]; 1% or 2% gel, three topical treatments at three hourly intervals, compared to placebo gel and bactroban): more effective at reducing the number of CFUs from a Streptococcus pyogenes CS 301 infection than the placebo gel or the bactroban
- number of CFUs in skin biopsy, 2% gel versus 1% gel ([4]; gel containing 2% compared to gel containing 1%): more effective than the gel containing only 1% of compound 7
- MIC [5]: 8 µg/mL (≈ 11 µM)
- MIC [6]: 4 µg/mL (≈ 5.51 µM)
- MIC [7]: 8 µg/mL (≈ 11 µM)
- MIC [8]: 8 µg/mL (≈ 11 µM)
- MIC [9]: 4 µg/mL (≈ 5.51 µM)
- MIC [10]: 4 µg/mL (≈ 5.51 µM)
- MRSE (MIC) [11]: <2 µg/mL
- MIC [12]: 8 µg/mL (≈ 11 µM)
- MIC [13]: 2 µg/mL (≈ 2.75 µM)
- MIC [14]: 4 µg/mL (≈ 5.51 µM)
- MIC [15]: 8 µg/mL (≈ 11 µM)
- S. aureus (MIC) [16]: <2 µg/mL
- MIC [17]: 8 µg/mL (≈ 11 µM)
- P. aeruginosa (MIC) (P. aeruginosa): 7 µg/mL
- MIC [18]: 8 µg/mL (≈ 11 µM)
- MIC [19]: 8 µg/mL (≈ 11 µM)
- MIC [20]: 8 µg/mL (≈ 11 µM)
- S. pyogenes (MIC) (S. pyogenes): <2 µg/mL
- MIC [21]: 8 µg/mL (≈ 11 µM)
- E. coli (MIC) (E. coli): 7 µg/mL
- MIC [22]: 8 µg/mL (≈ 11 µM)
- MIC [23]: 8 µg/mL (≈ 11 µM)
- MIC [24]: 8 µg/mL (≈ 11 µM)
- MIC [25]: 8 µg/mL (≈ 11 µM)
- C. albicans (MIC) (C. albicans): 25 µg/mL
- MIC [26]: 4 µg/mL (≈ 5.51 µM)
- MIC [27]: 8 µg/mL (≈ 11 µM)
- MIC [28]: 8 µg/mL (≈ 11 µM)
